Test results from patent US9034863B2, “Compositions and methods for inhibiting entry of a hepatic virus” (The Board of Trustees of the University of Illinois, priority 2008, dated 2015).

Columns and labels:
Assay type in all cases: cell-based, Hepatitis C virus (HCV)
HCVcc = test: HCV foci reduction assay, acute HCVcc infection of Huh7 cells; settings: added pre-, co- or post-infection
[1] = system: HCV genotype 1b subgenomic replicon; test: HCV sg1b replicon RNA replication in Huh7 cells, RT-qPCR; settings: 72 hours post-treatment
[2] = system: HCV genotype 2a subgenomic replicon; test: HCV sg2a replicon RNA replication in Huh7 cells, RT-qPCR; settings: 72 hours post-treatment
Source text: Huh7 cells, also known as Huh7/scr cells, are well-known in the art (Zhong, et al. (2005) Proc. Natl. Acad. Sci. USA 102, 9294-99; Gastaminza, et al. (2006) J. Virol. 80:11074-81; Zhong, et al. (2006) J. Virol. 80:11082-93; Sainz et al. (2009) PLoS ONE 4:e6561). […] The HCV sg2a replicon was established as previously described (Uprichard, et al. (2006) Virol. J. 3:89). Briefly the HCV genotype 2a subgenomic replicon RNA (psgJFH1; Kato, et al. (2003) Gastroenterology 125:1808-17) was XbaI linearized, in vitro transcribed using […] T7 (Ambion, Austin, Tex.) and transfected into cells using a modified electroporation protocol (Krieger, et al. (2001) J. Virol. 75(10):4614-24). All cells were cultured in complete Dulbecco's modified Eagle's medium (cDMEM) (Hyclone, Logan, Utah) supplemented with 10% fetal bovine serum (FBS) (Hyclone), 100 units/ml penicillin, […] streptomycin, and 2 mM L-glutamine (Gibco Invitrogen, Carlsbad, Calif.) and 500 μg/ml geneticin ((Invitrogen) for HCV replicon cells only).
(§1) Total cellular RNA was purified using an ABI PRISM™ 6100 Nucleic Acid PrepStation (Applied Biosystems), as per the manufacturer's instructions. […] HCV JFH-1 and human GAPDH RNA transcript levels were determined relative to a standard curve derived from serial dilutions of plasmid containing the JFH-1 HCV cDNA or the human GAPDH coding sequence, respectively. […]

HCV-JFH-1 = test: Chronic HCV-JFH-1 infection of Huh7-1 cells, inhibitor combinations, RT-qPCR 24-96 h (FIG. 3-5); settings: for decrease in intracellular HCV load (FIG. 4B): ferristatin 50 μM; for decrease in intracellular HCV load (FIG. 4B) / reduction of HCV levels (FIG. 3): IFN-α 100 U/ml; for reduction of HCV levels (FIG. 3): PI 200 nM
Procedure: RT-qPCR analysis of intracellular HCV RNA levels in Huh7 cultures mock-treated, treated with ezetimibe (30 μM), PI (200 nM), IFN-α (100 U/ml), or indicated combinations thereof (n=3). Data presented are representative of multiple independent experiments.
FIG. 4A, Chronically infected Huh7-1 cell cultures (n=3) treated with ezetimibe (E), naringenin (N), interferon α (I), or combinations thereof, were harvested at 24, 48, 72 or 96 hours post-treatment, intracellular HCV levels were quantified by RT-qPCR, and are presented as HCV copies/μg RNA. FIG. 4B, Chronically infected Huh7-1 cell cultures (n=3) treated with ezetimibe (E), ferristatin (T), interferon α (I), or combinations thereof, were harvested at 24, 48, 72 or 96 hours post-treatment, intracellular HCV levels were quantified by RT-qPCR, and are presented as HCV copies/μg RNA.
Shown are the results of RT-qPCR analysis of intracellular HCV RNA levels in Huh7 cultures mock-treated, treated with ezetimibe (30 μM), polymerase inhibitor, RG7128 (1 μM), or a combination thereof (n=3).
For experiments analyzing the activity of ezetimibe in combination with a protease inhibitor, Huh7-1 cells were infected with HCV-JFH-1 and allowed to reach steady state levels of infection. The HCV-infected cells were seeded in a 96-well plate and treated with the following: medium alone, 30 μM ezetimibe, 200 nM ITMN5537, 100 μ/ml IFN-α, and combinations of the above drugs at the specified concentrations. Medium and drugs were replaced every 24 hours. Triplicate wells were harvested at 24, 48, 72 or 96 hours post-treatment, in 200 μl/well of 1×ABI lysis buffer and stored at −80° C. until RNA extraction.
Therefore, the therapeutic potential of an IFN-free antiviral cocktail was also investigated, using ezetimibe in combination with other direct acting inhibitors of HCV amplification, specifically an inhibitor of the HCV NS3/4A protease (ITMN 5537; Intermune, Brisbane, Calif.). Huh7-1 cells were infected with HCV-JFH-1 and allowed to reach steady state levels of infection. Cells were monotreated with protease inhibitor (PI) or ezetimibe or IFN alone or treated with combinations of PI+ezetimibe or PI+IFN or IFN+ezetimibe or a combination of all three inhibitors. Samples were harvested at 24, 48, 72 or 96 hours post-treatment, the intracellular RNA was extracted and RT-qPCR performed to quantify HCV copies.
Thus, parallel cultures of chronically infected Huh7-1 cells were established and subsequently treated with ezetimibe, naringenin or IFN-α, either alone or in combination. Treatments were replenished every 24 hours. Triplicate cultures of each treatment condition were harvested at 24, 48, 72 or 96 hours post-treatment and intracellular HCV levels were quantified by RT-qPCR (FIG. 4A). […] Thus, no evidence of synergy was observed when IFN-α was combined with an egress inhibitor that only blocks cell-free spread.
As an alternative method of determining the therapeutic importance of inhibiting HCV cell-to-cell spread, an inhibitor to TfR1 was used. TfR1 has also been identified as another host cell factor that is involved in cell-free entry of HCV into cells, but is not required for cell-to-cell-mediated HCV entry. Thus, unlike ezetimibe which inhibits both cell-free and cell-to-cell HCV spread, the TfR1 inhibitor, ferristatin, only blocks cell-free virus spread. Again, chronically infected Huh7-1 cell cultures were established and treated with ezetimibe (30 μM), ferristatin (50 μM), or IFN-α (100 U/ml), either alone or in combination and treatments were replenished every 24 hours. Intracellular HCV copies were quantified from triplicate cultures by RT-qPCR at 24, 48, 72 or 96 hours post-treatment (FIG. 4B).
Huh7-1 cells were infected with HCV-JFH-1 and allowed to reach steady state levels of infection. Cells were monotreated with HCV polymerase inhibitor RG7128 (1 μM) or ezetimibe (30 μM) alone or treated with a combination of RG7128 and ezetimibe. […]

HCVcc JFH-1 = test: Chronic HCVcc infection in growing Huh7 cells, long-term treatment, RT-qPCR (FIG. 2)
Procedure: Cultures of growing Huh7 cells were inoculated with HCVcc JFH-1 at an MOT of 0.01 FFU/cell. Infected cultures were maintained for an additional 10 days to allow HCV RNA to reach steady-state levels. FIG. 2A, Cultures were mock treated, treated with ezetimibe alone (30 μM), IFN-α (100 U/ml) alone, or ezetimibe (30 μM) plus IFN-α (100 U/ml) in combination. Treatments were maintained as cultures were passaged. FIG. 2B, After 70 days IFN-α or combination ezetimibe plus IFN-α treatment, treatment was either continued (open shapes) or discontinued (filled shapes). […] Results are graphed as means±s.e.m. for triplicate samples. The data presented are representative of two independent experiments.
For experiments in growing cells, Huh7 cells seeded at 1×10^6 cells in a T75 cell culture flask (Corning) were infected with JFH-1 HCVcc at a MOI of 0.01 FFU/cell and subsequently cultured for 10 days to allow HCV RNA to reach steady-state levels. On day 10 post-infection, cells were split 1:4 and re-plated into T25 culture flasks (Corning). Twenty four hours post seeding, individual flasks were mock-treated with cDMEM or treated with cDMEM containing IFN-α (100 U/ml), ezetimibe (30 μM) or a combination of both IFN-α (100 U/ml) and ezetimibe (30 μM). Throughout the course of the experiment, fresh media with treatments was replenished every two days and cells were trypsinized just before reaching confluence and re-plated at a dilution of 1:3 to maintain active cell growth. […]
as §1
To confirm HCV clearance, drug treatments were subsequently discontinued on day 70 and HCV RNA levels were monitored for an additional 30 days.

## CC[C@H](C)C(=O)O[C@H]1C[C@@H](C)C=C2C=C[C@H](C)[C@H](CC[C@@H]3C[C@@H](O)CC(=O)O3)[C@H]21 [Lovastatin]
HCVcc
  inhibition of HCVcc foci formation: had no affect
[1]
  reduction of sg1b RNA levels: 22 fold
[2]
  sg2a HCV RNA levels: had no affect

## Cc1[n-]n(-c2ccc(S(=O)(=O)O)cc2)c(=O)c1N=Nc1ccc(-c2ccc(N=Nc3ccc4c(S(=O)(=O)O)cc(S(=O)(=O)O)c(N)c4c3[O-])c([O-])c2)cc1[O-].[Cu+2].[Cu+2] [ferristatin]
HCV-JFH-1; ezetimibe 30 μM
  decrease in intracellular HCV load (FIG. 4B): neither ezetimibe nor ferristatin alone reduced intracellular HCV load

## IFN-α
HCVcc JFH-1; by day 32 post-treatment vs mock, IFN-α 100 U/ml, ezetimibe 30 μM
  decrease in intracellular HCV RNA levels: ~2 logs
HCVcc JFH-1; discontinued on day 70, monitored 30 days
  rebound in HCV RNA after treatment discontinued: immediate rebound
HCV-JFH-1; ezetimibe 30 μM
  reduction of HCV levels (FIG. 3): a log
  decrease in intracellular HCV load (FIG. 4B): a log decrease
HCV-JFH-1; ezetimibe, naringenin, IFN-α alone or in combination
  reduction of HCV copies (FIG. 4A): a log decrease

## CC(C)(C)OC(=O)N[C@H]1CCCCC/C=C\[C@@H]2C[C@@]2(C(=O)NS(=O)(=O)C2(C)CC2)NC(=O)[C@@H]2C[C@@H](OC(=O)N3Cc4cccc(F)c4C3)CN2C1=O [PI]
HCV-JFH-1; ezetimibe 30 μM
  reduction of HCV levels (FIG. 3): less than a log

## CC(C)C(=O)OC[C@H]1O[C@@H](n2ccc(N)nc2=O)[C@](C)(F)[C@@H]1OC(=O)C(C)C [RG7128]
HCV-JFH-1; RG7128 1 μM, ezetimibe 30 μM, normalized to Mock
  reduction of HCV levels (FIG. 5): less than a log
